Assay results taken from publication PMC6471528, “Biological Evaluation and Molecular Docking Studies of Dimethylpyridine Derivatives” (Molecules, 2019).

Assays:
COX-1 = target: T1, COX-1 (Ovis aries, UniProt P05979); assay: COX colorimetric inhibitor screening assay (TMPD oxidation), COX-1; assay type: biochemical; conditions: for IC50: read-out: IC50 (µM),(SD) COX-1; for inhibitory activity on COX-1 (in words): 2 min of incubation
T1 construct: purchased Cayman Chemical Company
T1 sequence (P05979 25-600): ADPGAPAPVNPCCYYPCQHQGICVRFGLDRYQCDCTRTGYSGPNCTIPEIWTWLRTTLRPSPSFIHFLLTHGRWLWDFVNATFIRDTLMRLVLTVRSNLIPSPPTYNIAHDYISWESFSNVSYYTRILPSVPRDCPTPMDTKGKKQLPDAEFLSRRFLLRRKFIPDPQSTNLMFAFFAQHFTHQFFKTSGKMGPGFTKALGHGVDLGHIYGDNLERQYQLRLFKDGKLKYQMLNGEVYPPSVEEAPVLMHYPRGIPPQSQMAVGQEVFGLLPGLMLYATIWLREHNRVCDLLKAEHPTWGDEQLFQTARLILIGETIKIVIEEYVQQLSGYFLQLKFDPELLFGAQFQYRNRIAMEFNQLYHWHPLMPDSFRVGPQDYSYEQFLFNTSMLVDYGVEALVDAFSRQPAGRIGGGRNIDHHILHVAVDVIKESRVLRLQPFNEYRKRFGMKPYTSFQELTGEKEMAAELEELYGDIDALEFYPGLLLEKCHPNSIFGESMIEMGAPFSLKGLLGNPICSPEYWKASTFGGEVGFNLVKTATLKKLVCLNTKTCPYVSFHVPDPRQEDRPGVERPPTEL
Procedure: (§1) The compounds were investigated for their potencies to inhibit COX-1 and COX-2 enzymes by the colorimetric inhibitor screening assay.
(§2) Selectivity of the compounds to COX-1 or to COX-2 was assessed by calculation of the IC50 ratios.
(§3) This method allows one to estimate the peroxidase activity of COX by colorimetric monitoring of the occurrence of the oxidized form of N,N,N′,N′-tetramethyl-p-phenylenediamine (TMPD) at 590 nm. TMPD is a substrate for most enzymes with peroxidase activity, and high throughput microplate assays using TMPD allow the rapid screening of a wide range of therapeutics that inhibit COX activity in vitro.
(§4) The test is based on the oxidation of TMPD during the reduction of PGG2 (prostaglandin G2) to PGH2, which is reflected by a change in colour, measured spectrophotometrically (Victor2 microspectrophotometer, PerkinElmer Waltham, MA, USA). The assay uses Tris-HCl buffer (0.1 M assay buffer, pH 8.0), a solution of heme in dimethylsulfoxide (DMSO), enzymes (COX-1, COX-2), arachidonic acid (100 μM), KOH (0.1 M) and a solution of TMPD. The assay mixture contains: 150 µL of assay buffer, 10 µL of heme and 10 µL of COX-1 or COX-2. In order to determine 100% enzyme activity (each COX sample was assayed in triplicate), 10 µL of the substances used as solvents (methanol, ethanol, DMSO) was added to the wells. Ten microlitres of tested inhibitors at appropriate concentrations were added to the other wells. Twenty microlitres of TMPD were added to all wells. The reaction was initiated by the addition of arachidonic acid.
(§5) The effect of tested inhibitors on COX-1 and COX-2 enzyme activity was measured by assaying the rate of TMPD oxidation within 2 min in a spectrophotometer at 590 nm.
(§6) The activity factor at 2 min of incubation with the tested compounds in comparison to the initial activity of the enzyme was determined.

[1] = test system: A549 (pulmonary basal cell alveolar adenocarcinoma); assay: Sulforhodamine B cytotoxicity assay, A549; assay type: cell-based; conditions: Homo sapiens, SRB assay, 48 h, mean (SD), n = 3
From the text: (§7) The sulforhodamine B assay was used to estimate the cytotoxic properties of the compounds. The cytotoxic activity of dimethylpyridine derivatives was studied against human cancer cell lines: A549 (pulmonary basal cell alveolar adenocarcinoma) and LoVo (colon adenocarcinoma). Additionally, the effect of compounds on NHDF (normal human dermal fibroblasts) and normal cell line V79 (fibroblast from Chinese hamster lung) was examined.
(§8) Normal human dermal fibroblasts (NHDF) from adult donors were purchased from Lonza (Verviers, Belgium). Normal cell line V79 (fibroblast from Chinese hamster lung) and human cancer cell lines, A549 (pulmonary basal cell alveolar adenocarcinoma) and LoVo (colon adenocarcinoma) were obtained from the European Collection of Authenticated Cell Cultures (ECACC).
(§9) Cells were grown in the culture media recommended by the cell line supplier. Before the test, adherent cells were detached with the trypsin EDTA solution, and FBS-containing medium was used to neutralize the effects of the trypsin/EDTA solution. After that, cells were spun down, counted, stained with a 0.4% solution of trypan blue and inspected under a microscope for cell viability. Then, cells were placed on 96-well plastic culture plates (2 × 10^3 cells/well) and incubated at 37 °C in a CO2-incubator for 24 h. Afterwards, all the tested compounds were added at appropriate final concentrations (100 µM, 50 µM, 20 µM, 10 µM, 5 µM), and the cultures were incubated for 48 h in CO2-incubator at 37 °C. Finally, cells were harvested and intended for the cell proliferation test.
(§10) Cell density/cell proliferation was estimated with the sulforhodamine B (SRB)-colorimetric assay. Briefly, cell cultures were fixed with cold TCA (final concentration 10% (w/v) in cultures of adherent cells for 1 h at 4 °C, then washed four times with tap water and air-dried at room temperature (20–25 °C). A mildly-acidic SRB solution (0.4% dye solution in 1% acetic acid) was added to each well for 30 min at 25 °C. Then, the unbound stain was removed by rinsing with an aqueous solution of 1% (v/v) acetic acid. Culture plates were then allowed to dry at room temperature. The protein-bound dye was dissolved in 10 mM Tris base solution (pH 10.5) for 10 min on a gyratory shaker. Absorbance of the SRB solution was estimated at 540 nm in a Victor 2 microplate reader (Perkin-Elmer, Waltham, MA, USA).

[2] = test system: LoVo (colon adenocarcinoma); assay: Sulforhodamine B cytotoxicity assay, LoVo; assay type: cell-based; conditions: Homo sapiens, SRB assay, 48 h, mean (SD), n = 3
From the text: as §7, §8, §9, §10

[3] = test system: NHDF (normal human dermal fibroblasts); assay: Sulforhodamine B cytotoxicity assay, NHDF; assay type: cell-based; conditions: SRB assay, 48 h, mean (SD), n = 3
From the text: as §7, §8, §9, §10

COX-2 = target: T2, COX-2 (Homo sapiens, UniProt P35354); assay: COX colorimetric inhibitor screening assay (TMPD oxidation), COX-2; assay type: biochemical; conditions: for Ratio: COX-2/COX-1: ratio of IC50 values COX-2/COX-1; for IC50: read-out: IC50 (µM),(SD) COX-2; for inhibitory activity on COX-2 (in words): 2 min of incubation
T2 construct: purchased Cayman Chemical Company
T2 sequence (P35354 18-604): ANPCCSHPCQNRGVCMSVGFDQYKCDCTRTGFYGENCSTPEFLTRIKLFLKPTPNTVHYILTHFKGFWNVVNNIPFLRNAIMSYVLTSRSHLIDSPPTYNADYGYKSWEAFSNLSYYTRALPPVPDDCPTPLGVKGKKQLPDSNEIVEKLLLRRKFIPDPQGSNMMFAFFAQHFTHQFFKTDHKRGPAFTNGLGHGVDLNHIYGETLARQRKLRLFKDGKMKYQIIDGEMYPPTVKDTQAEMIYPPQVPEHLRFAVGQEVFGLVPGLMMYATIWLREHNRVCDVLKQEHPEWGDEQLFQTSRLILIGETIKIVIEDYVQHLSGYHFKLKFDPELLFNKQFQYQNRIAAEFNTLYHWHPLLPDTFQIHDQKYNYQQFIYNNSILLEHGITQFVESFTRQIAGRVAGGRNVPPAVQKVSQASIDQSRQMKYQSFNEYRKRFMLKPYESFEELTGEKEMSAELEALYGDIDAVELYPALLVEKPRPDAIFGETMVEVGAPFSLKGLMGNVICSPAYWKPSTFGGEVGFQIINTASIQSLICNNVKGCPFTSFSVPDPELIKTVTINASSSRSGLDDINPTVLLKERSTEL
Procedure: as §1, §2, §3, §4, §5, §6

[4] = test system: V79 (fibroblast from Chinese hamster lung); assay: Sulforhodamine B cytotoxicity assay, V79; assay type: cell-based; conditions: Cricetulus griseus, SRB assay, 48 h, mean (SD), n = 3
From the text: as §7, §8, §9, §10

Structure (SMILES)	IC50 (COX-1)	Ratio: COX-2/COX-1 (COX-2)	IC50 (COX-2)	inhibitory activity on COX-1 (in words) (COX-1)	inhibitory activity on COX-2 (in words) (COX-2)	IC50 [1]	IC50 [2]	IC50 [3]	IC50 [4]
Cc1cc(C)c(C(=O)NCC(=O)N/N=C/c2c3ccccc3cc3ccccc23)c(S)n1 [PS35]	–	–	–	no inhibitory activity	no inhibitory activity	–	212 µM	202 µM	196 µM
Cc1cc(C)c(C(=O)NCC(=O)N/N=C/c2ccc(C(F)(F)F)cc2)c(S)n1 [PS38]	–	–	–	no inhibitory activity	no inhibitory activity	504 µM	–	–	172 µM
Cc1cnc(NC(=O)C2=C(O)c3ccccc3S(=O)(=O)N2C)s1 [Meloxicam, reference compound]	–	–	–	–	–	148 µM	125 µM	206 µM	232 µM
CN1C(C(=O)Nc2ccccn2)=C(O)c2ccccc2S1(=O)=O [Piroxicam, reference compound]	–	–	–	–	–	138 µM	122 µM	–	200 µM
Cc1cc(C)c(C(=O)NCC(=O)N/N=C/c2ccc([N+](=O)[O-])cc2)c(S)n1 [PS36]	–	–	731 µM	did not show any inhibitory activity	–	164 µM	99.8 µM	144 µM	141 µM
Cc1cc(C)c(C(=O)NCC(=O)N/N=C/c2cccc3ccccc23)c(S)n1 [PS34, N′-naphtylmethylene derivative]	–	–	–	no inhibitory activity	no inhibitory activity	–	–	–	421 µM

Further lines, with some results ahead:

IC50 (COX-1)	Ratio: COX-2/COX-1 (COX-2)	IC50 (COX-2)	inhibitory activity on COX-1 (in words) (COX-1)	inhibitory activity on COX-2 (in words) (COX-2)	Structure (SMILES)	IC50 [1]	IC50 [2]	IC50 [3]	IC50 [4]
51.8 µM	2.8	143 µM	–	–	Cc1ccc(/C=N/NC(=O)CNC(=O)c2c(C)cc(C)nc2S)cc1 [PS33, N′-4-methylphenylmethylene derivative]	156 µM	131 µM	159 µM	178 µM
57.3 µM	2.4	139 µM	–	–	Cc1cc(C)c(C(=O)NCC(=O)N/N=C/c2ccccc2)c(S)n1 [PS18, N′-phenylmethylene derivative]	154 µM	135 µM	171 µM	275 µM
–	–	–	no inhibitory activity	no inhibitory activity	Cc1cc(C)c(C(=O)NCC(=O)N/N=C/c2cc([N+](=O)[O-])ccc2Cl)c(S)n1 [PS39]	120 µM	103 µM	391 µM	147 µM
–	–	–	no inhibitory activity	no inhibitory activity	Cc1cc(C)c(C(=O)NCC(=O)N/N=C/c2ccc(Cl)cc2Cl)c(S)n1 [PS41]	220 µM	154 µM	336 µM	418 µM
72.8 µM	2.4	177 µM	–	–	CCOc1ccccc1/C=N/NC(=O)CNC(=O)c1c(C)cc(C)nc1S [PS42]	140 µM	133 µM	132 µM	162 µM
